Drawing on patent US7879853B2, “4,6-disubstituted pyrimidines and their use as protein kinase inhibitors” (Bayer Schering Pharma AG, priority 2004, dated 2011), this text covers melting point for 13 molecules.

As a reminder, the melting point is the temperature of the solid-liquid transition.

Take `CN1CCN(Cc2ccc(C(=O)Nc3ccc(Nc4cc(-c5cccc6c5oc5ccccc56)ncn4)cc3)cc2)CC1` [Compound 3, N-[4-(6-Dibenzofuran-4-yl-pyrimidin-4-ylamino)-phenyl]-4-(4-methyl-piperazin-1-ylmethyl)-benzamide]: the melting point is 270 to 274 °C.
The value for `Nc1ccc(CC(=O)Nc2ccc(Nc3cc(-c4cccc5c4oc4ccccc45)ncn3)cc2)cc1.O=C(O)C(F)(F)F` was 125 to 130 °C; that for `NCc1ccc(C(=O)Nc2ccc(Nc3cc(-c4cccc5c4oc4ccccc45)ncn3)cc2)cn1.O=C(O)C(F)(F)F` [Compound 64, 6-Aminomethyl-N-[4-(6-dibenzofuran-4-yl-pyrimidin-4-ylamino)-phenyl]-nicotinamide trifluoroacetate] was 145 to 150 °C.
Take `CN1CCN(c2ccc(C(=O)Nc3ccc(Nc4cc(-c5cccc6c5oc5ccccc56)ncn4)cc3)cc2)CC1` [Compound 14, N-[4-(6-Dibenzofuran-4-yl-pyrimidin-4-ylamino)-phenyl]-4-(4-methyl-piperazin-1-yl)-benzamide]: the melting point was in the range of 304 to 319 °C.
Consider `NCC(C(=O)Nc1cccc(Nc2cc(-c3cccc4c3oc3ccccc34)ncn2)c1)c1ccc(Cl)c(Cl)c1.O=C(O)C(F)(F)F` (stereo not shown) [Compound 76, 3-Amino-N-[3-(6-dibenzofuran-4-yl-pyrimidin-4-ylamino)-phenyl]-2-(3,4-dichlorophenyl)-propionamide trifluoroacetat], for which the melting point fell in the range of 138 to 145 °C.
Molecule `O=C(Nc1ccc(Nc2cc(-c3cccc4c3oc3ccccc34)ncn2)cc1)c1ccc(CN2CCOCC2)cc1` [Compound 13, N-[4-(6-Dibenzofuran-4-yl-pyrimidin-4-ylamino)-phenyl]-4-morpholin-4-ylmethyl-benzamide] had a melting point above 250 °C.
`CC(C)(C)OC(=O)NCCc1ccc(C(=O)Nc2ccc(Nc3cc(-c4cccc5c4oc4ccccc45)ncn3)cc2)cc1` [Compound 23, tert-Butyl N-(2-{4-[4-(6-Dibenzofurane-4-yl-pyrimidin-4-ylamino)-phenylcarbamoyl]phenyl}-ethyl)-carbamate] registered a melting point above 250 °C.
Take `CC(C)(C)OC(=O)NCc1ccc(C(=O)Nc2ccc(Nc3cc(-c4cccc5c4oc4ccccc45)ncn3)cc2)cc1` [Compound 17, tert-Butyl N-{4-[4-(6-dibenzofuran-4-yl-pyrimidin-4-ylamino)-phenylcarbamoyl]-benzyl}-carbamate]: the melting point lay within 311 to 321 °C.
The molecule `CN(C)c1ccc(C(=O)Nc2ccc(Nc3cc(-c4cccc5c4oc4ccccc45)ncn3)cc2)cc1` [Compound 2, N-[4-(6-Dibenzofuran-4-yl-pyrimidin-4-ylamino)-phenyl]-4-dimethylamino-benzamide] showed a melting point of 285 to 300 °C.
As to `O=C(Nc1ccc(Nc2cc(-c3cccc4c3oc3ccccc34)ncn2)cc1)c1ccc(N2CCOCC2)nc1` [Compound 15, N-[4-(6-Dibenzofuran-4-yl-pyrimidin-4-ylamino)-phenyl]-6-morpholin-4-yl-nicotinamide], the melting point was 310 to 312 °C.
As to `CC(C)(C)OC(=O)NCc1ccnc(C(=O)Nc2ccc(Nc3cc(-c4cccc5c4oc4ccccc45)ncn3)cc2)c1` [Compound 24, tert-Butyl N-{2-[4-(6-Dibenzofuran-4-yl-pyrimidin-4-ylamino)-phenylcarbamoyl]-pyridin-4-ylmethyl}-carbamate], the melting point came to 245 °C.
The value for `O=C(Nc1ccc(Nc2cc(-c3cccc4c3oc3ccccc34)ncn2)cc1)c1ccccc1` [Compound 7, N-[4-(6-Dibenzofuran-4-yl-pyrimidin-4-ylamino)-phenyl]-benzamide] was 323 to 325 °C.
In the case of `CC(C)(C)OC(=O)NCc1cccc(C(=O)Nc2ccc(Nc3cc(-c4cccc5c4oc4ccccc45)ncn3)cc2)c1` [Compound 22, tert-Butyl N-{3-[4-(6-Dibenzofuran-4-yl-pyrimidin-4-ylamino)-phenylcarbamoyl]-benzyl}-carbamate] it was 237 °C.
